Data from PubChem BioAssay AID330 (DTP/NCI, 2004).
Inconclusive results and toxic doses are left out.

System: P388 leukemia ip, CD2F1 mice, survival T/C
Experiment: NCI In Vivo Anticancer Drug Screen. Data for tumor model P388 Leukemia (intraperitoneal) in CD2F1 (CDF1) mice
Conditions: endpoint: median survival time, higher = longer survival
Procedure, shortened: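 Mice carrying the transplanted tumor received test compound or vehicle. Survival was recorded in each group, and the value is the treated-group measurement divided by that of the vehicle-treated control group.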

[1] = dose: 60.0 mg/kg/injection, schedule: Q01DX005 (ip), vehicle: saline with Tween-80
[2] = dose: 120.0 mg/kg/injection, schedule: Q01DX005 (ip), vehicle: saline with Tween-80
[3] = dose: 240.0 mg/kg/injection, schedule: Q01DX005 (ip), vehicle: saline with Tween-80
[4] = dose: 50.0 mg/kg/injection, schedule: Q01DX005 (ip), vehicle: Klucel (hydroxypropylcellulose) (HPC)
[5] = dose: 100.0 mg/kg/injection, schedule: Q01DX005 (ip), vehicle: Klucel (hydroxypropylcellulose) (HPC)
[6] = dose: 200.0 mg/kg/injection, schedule: Q01DX005 (ip), vehicle: Klucel (hydroxypropylcellulose) (HPC)

O=C1CN(c2cccc(C(F)(F)F)c2)C(=O)CN1/N=C/c1cccnc1
T/C (dose: 50.0 mg/kg/injection, schedule: Q01DX005 (ip), vehicle: saline with Tween-80): 94 % of control | T/C (dose: 100.0 mg/kg/injection, schedule: Q01DX005 (ip), vehicle: saline with Tween-80): 97 % of control | T/C (dose: 200.0 mg/kg/injection, schedule: Q01DX005 (ip), vehicle: saline with Tween-80): 94 % of control

COC(=O)C1=Cc2c(n3ncnc3n(-c3ccccc3)c2=O)N(S(=O)(=O)c2ccc(C)cc2)CC1
T/C [1]: 93 % of control | T/C [2]: 95 % of control | T/C [3]: 97 % of control

COC(=O)c1nc2nnc(N)n2c(-c2ccc(Cl)cc2)c1C
T/C [1]: 100 % of control | T/C [2]: 101 % of control | T/C [3]: 96 % of control

CC(=O)OCCOCn1cc(C)[n+]([O-])nc1=O
T/C [1]: 100 % of control | T/C [2]: 94 % of control | T/C [3]: 95 % of control

CC(C)(C)C(=O)Oc1cc2c(cc1OC(=O)C(C)(C)C)C(c1ccccc1)CNCC2 (stereo not drawn)
T/C (dose: 25.0 mg/kg/injection, schedule: Q01DX009 (ip), vehicle: saline with Tween-80): 96 % of control | T/C (dose: 50.0 mg/kg/injection, schedule: Q01DX009 (ip), vehicle: saline with Tween-80): 98 % of control

CC(=NCc1ccccc1)Nc1ccc(NC(=O)c2ccc(C(=O)Nc3ccc(NC(C)=NCc4ccccc4)cc3)cc2)cc1
T/C (dose: 25.0 mg/kg/injection, schedule: Q01DX005 (ip), vehicle: Klucel (hydroxypropylcellulose) (HPC)): 98 % of control | T/C [4]: 95 % of control | T/C [5]: 94 % of control | T/C [6]: 99 % of control

CCOc1cc2c(cc1C(C)c1ccc(OC)c(OC)c1)OCO2 (stereo not drawn)
T/C [4]: 100 % of control | T/C [5]: 105 % of control | T/C [6]: 107 % of control

CCCCCC(CN(C)C)/C(CC(NO)c1ccccc1)=N\O (stereo not drawn)
T/C (dose: 50.0 mg/kg/injection, schedule: Q01DX009 (ip), vehicle: Klucel (hydroxypropylcellulose) (HPC)): 106 % of control | T/C (dose: 100.0 mg/kg/injection, schedule: Q01DX009 (ip), vehicle: Klucel (hydroxypropylcellulose) (HPC)): 106 % of control

CC(=O)Nc1cccc(N=Cc2ccc[nH]2)c1
T/C (dose: 100.0 mg/kg/injection, schedule: Q04DX003 (ip), vehicle: Klucel (hydroxypropylcellulose) (HPC)): 99 % of control | T/C (dose: 200.0 mg/kg/injection, schedule: Q04DX003 (ip), vehicle: Klucel (hydroxypropylcellulose) (HPC)): 100 % of control

C=C(C)COc1ccc(C)cc1
T/C (dose: 25.0 mg/kg/injection, schedule: Q01DX009 (ip), vehicle: other): 108 % of control | T/C (dose: 50.0 mg/kg/injection, schedule: Q01DX009 (ip), vehicle: other): 104 % of control | T/C (dose: 100.0 mg/kg/injection, schedule: Q01DX009 (ip), vehicle: other): 110 % of control
